Test results from patent US20260103465A1, “GLYCOGEN SYNTHASE KINASE 3 INHIBITORS AND USES THEREOF” (The Broad Institute, Inc., priority 2023, published 2026).
Like-named read-outs stand apart in the source and are kept apart here.

Tests used:
[1] = target: T1, GSK3a (GST-full length GSK3a) (Homo sapiens, UniProt P49840); test: GSK3a TR-FRET kinase inhibition assay; assay type: biochemical
T1 construct: GST-full length GSK3a [SignalChem G08-10G]; purchased SignalChem G08-10G
How it was run: (§1)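 GST-tagged full-length human kinase (1 nM), pre-incubated 30 min with compound, then reacted 100 min at ambient temperature at pH 7.5 with 200 nM biotinylated phospho-S645 glycogen synthase 631–650 peptide and ATP at 2 μM–1 mM. After EDTA quench, Tb-pSer641 antibody/streptavidin-d2 TR-FRET 665/615 ratio fitted for IC50.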

[2] = target: T2, GSK3b (GST-full length GSK3b) (Homo sapiens, UniProt P49841); test: GSK3b TR-FRET kinase inhibition assay; assay type: biochemical
T2 construct: GST-full length GSK3b: [SignalChem G08-9G]; purchased SignalChem G08-9G
How it was run: as §1

[3] = Human liver microsomal stability; assay type: in vitro ADME; conditions: human liver microsomes
Procedure: Stability of compound (5 μL of a 10 mM DMSO solution) in human liver microsomes was tested in duplicate by incubating compound at 1 μM for 60 minutes at 37° C. Compound level at 60 minutes was compared to level at 0 minutes, and percent remaining was calculated. Order by selecting Microsomal Stability in Prometheus, checking boxes for desired species. Assay Controls: microsomes with NADPH without compound-matrix interference. Microsomes plus compound without NADPH—non-enzymatic instability.

[4] = system: MDR1-MDCK cell monolayers; test: MDR1/MDCK permeability assay; assay type: in vitro ADME; conditions: for MDCK Permeability (MDR1-MDCK); Mean; Papp(A-B) (10^−6 cm/s): A to B; for MDCK Permeability (MDR1-MDCK); Mean; Papp(B-A) (10^−6 cm/s): B to A; for MDCK Permeability (MDR1-MDCK); Mean; P. Ratio(B-A/A-B) Efflux Ratio / MIDCK Permeability (MDR1-MDCK); Mean; P. Ratio(B-A/A-B) Efflux Ratio: Papp B-A/A-B
Text: The MDR1/MDCK assay is run at WuXi and Absorption Systems. This assay is used to determine the blood-brain barrier (BBB) penetration potential of a test compound using MDR1-MDCK cell monolayers. Catalog number EA203.
• The percent recovery of the test compound from the Transwell® wells containing MDR1-MDCK cell monolayers • The apparent permeability (Papp) in both directions • The efflux ratio (Papp B to A)/(Papp A to B) • The blood-brain barrier penetration potential classification: • High when • Papp A to B≥3.0×10^−6 cm/s, and efflux<3.0 • Moderate when • Papp A to B≥3.0×10^−6 cm/s, and 10>efflux≥3.0 • Low when either • Papp A to B≥3.0×10^−6 cm/s, and […], or when • Papp A to B<[…].
• Test compound at 5 μM in HBSSg with maximum DMSO concentration not greater than 1%.
• Confluent monolayers of MDR1-MDCK cells, 7 to 11 days old.
• Receiver well with 1% BSA in modified Hanks buffer (HBSSg) • Apical and basolateral side at pH 7.4 • Dose two monolayers in each direction (N=2) • Dose apical side for (A to B) assessment • Dose basolateral side for (B to A) assessment • Sample both apical and basolateral sides at 120 minutes • Determine the concentrations of test compound using a generic LC-MS/MS method with a minimum 4 point calibration curve.
• The quality of the cell monolayer batch is verified using control compounds before monolayers are released for use • The quality of each monolayer used in the assay is verified by a TEER measurement and by calculating the Papp for a control compound.

[5] = 4 μM ATP, read-out: GSK3α TR-FRET 4 μM ATP GMean IC50
[6] = 2 μM ATP, read-out: GSK3β TR-FRET 2 μM ATP GMean IC50
[7] = 1 mM ATP, Table 3, read-out: GSK3a TR-FRET 1 mM ATP Average IC50
[8] = 1 mM ATP, Table 3, read-out: GSK3b TR-FRET 1 mM ATP Average IC50

T2 sequence (P49841 whole entry): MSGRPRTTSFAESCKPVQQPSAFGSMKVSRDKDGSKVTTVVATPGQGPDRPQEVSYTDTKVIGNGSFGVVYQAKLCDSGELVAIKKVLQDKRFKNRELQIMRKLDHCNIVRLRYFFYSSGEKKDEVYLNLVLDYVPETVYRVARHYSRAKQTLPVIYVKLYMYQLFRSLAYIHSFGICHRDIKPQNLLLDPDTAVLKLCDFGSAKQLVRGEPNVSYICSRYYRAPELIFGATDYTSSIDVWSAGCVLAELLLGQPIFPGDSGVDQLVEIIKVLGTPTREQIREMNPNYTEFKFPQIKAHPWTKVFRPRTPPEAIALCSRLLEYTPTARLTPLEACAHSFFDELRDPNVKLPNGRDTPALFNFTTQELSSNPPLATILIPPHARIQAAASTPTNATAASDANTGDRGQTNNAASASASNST
T1 sequence (P49840 whole entry): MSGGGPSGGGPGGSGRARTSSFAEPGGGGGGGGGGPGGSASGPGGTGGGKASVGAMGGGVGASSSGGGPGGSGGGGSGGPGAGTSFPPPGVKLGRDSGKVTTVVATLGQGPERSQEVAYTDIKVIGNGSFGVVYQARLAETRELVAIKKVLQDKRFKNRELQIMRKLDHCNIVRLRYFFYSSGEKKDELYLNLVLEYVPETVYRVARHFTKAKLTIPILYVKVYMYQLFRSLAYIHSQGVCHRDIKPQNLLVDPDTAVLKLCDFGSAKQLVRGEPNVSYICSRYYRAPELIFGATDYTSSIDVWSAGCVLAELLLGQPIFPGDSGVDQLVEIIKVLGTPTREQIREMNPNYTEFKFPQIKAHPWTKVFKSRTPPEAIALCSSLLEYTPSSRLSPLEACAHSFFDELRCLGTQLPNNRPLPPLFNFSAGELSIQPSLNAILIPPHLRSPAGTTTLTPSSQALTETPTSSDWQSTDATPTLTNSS

| Structure (SMILES) | IC50 [1, 5] | IC50 [2, 6] | Microsome Stability (Human) (DMPK_BIIB); Mean; in vitro t1/2 ([3]; Table 4) | MDCK Permeability (MDR1-MDCK); Mean; Papp(A-B) (10^−6 cm/s) ([4]; Table 4) | MDCK Permeability (MDR1-MDCK); Mean; Papp(B-A) (10^−6 cm/s) ([4]; Table 4) | MDCK Permeability (MDR1-MDCK); Mean; P. Ratio(B-A/A-B) Efflux Ratio ([4]; Table 4) | IC50 [1, 7] | IC50 [2, 8] | MDCK Permeability (MDR1-MDCK); Mean; Papp(A-B) (10^−6 cm/s) ([4]; Table 3) | MDCK Permeability (MDR1-MDCK); Mean; Papp(B-A) (10^−6 cm/s) ([4]; Table 3) | MIDCK Permeability (MDR1-MDCK); Mean; P. Ratio(B-A/A-B) Efflux Ratio ([4]; Table 3) | also measured |
| --- | --- | --- | --- | --- | --- | --- | --- | --- | --- | --- | --- | --- |
| CC1(C)CC(=O)C2=C(C1)Nc1ncccc1C2(C)c1ccccc1 (single isomer, unassigned) [Compound 101A] | – | – | – | – | – | – | 1000 to 5000 nM | 1000 to 5000 nM | 30 10^−6 cm/s | 22 10^−6 cm/s | 0.72 | IC50 ([1]; 10 μM ATP, read-out: GSK3a 10 μM ATP Average IC50): ≤ 100 nM; IC50 ([1]; 100 μM ATP, read-out: GSK3a 100 μM ATP Average IC50): 100 to 1000 nM; IC50 ([2]; 10 μM ATP, read-out: GSK3b 10 μM ATP Average IC50): ≤ 100 nM; IC50 ([2]; 100 μM ATP, read-out: GSK3b 100 μM ATP Average IC50): 100 to 1000 nM; Microsome Stability (Human) (DMPK_BIIB); Mean; in vitro t1/2 ([3]; Table 3): 37 min |
| CC1(C)CC(=O)C2=C(C1)Nc1nccc(C#N)c1C2(C)c1ccccc1 (single isomer, unassigned) [Compound 108A] | – | – | – | – | – | – | 100 to 1000 nM | 100 to 1000 nM | 18 10^−6 cm/s | 56 10^−6 cm/s | 3.2 | – |
| CCC1(c2ccccc2)C2=C(CC(C)(C)CC2=O)Nc2ncc(C(F)(F)F)cc21 (single isomer, unassigned) [Compound 133B] | – | – | 73 min | 11 10^−6 cm/s | 16 10^−6 cm/s | 1.5 | – | – | – | – | – | – |
| CCC1(c2ccccc2)C2=C(CC(C)(C)CC2=O)Nc2ncc(F)cc21 (single isomer, unassigned) [Compound 114B] | – | – | 1.7 min | 12 10^−6 cm/s | 24 10^−6 cm/s | 2.1 | – | – | – | – | – | – |
| CCC1(c2ccccc2)C2=C(CC3(CCC3)CC2=O)Nc2ncccc21 (single isomer, unassigned) [Compound 110B] | – | – | 1.7 min | 13 10^−6 cm/s | 27 10^−6 cm/s | 2.1 | – | – | – | – | – | – |
| CC(C)Oc1cccc(C2(C)C3=C(CC(C)(C)CC3=O)Nc3ncc(C(F)F)c(C#N)c32)c1 (single isomer, unassigned) [650A] | – | – | – | – | – | – | – | – | – | – | – | IC50 ([1]; 1 mM ATP, Table 5, read-out: GSK3α TR-FRET 1 mM ATP Average IC50): 5000 to 20000 nM; IC50 ([2]; 1 mM ATP, Table 5, read-out: GSK3β TR-FRET 1 mM ATP Average IC50): 1000 to 5000 nM |
| CC1(C)CC(=O)C2=C(C1)Nc1ncc(F)c(C#N)c1C2(C)c1ccccc1 (single isomer, unassigned) [Compound 121B] | – | – | – | – | – | – | 1000 to 5000 nM | 1000 to 5000 nM | – | – | – | – |

Second part, led by results:

| IC50 [1, 5] | IC50 [2, 6] | Microsome Stability (Human) (DMPK_BIIB); Mean; in vitro t1/2 ([3]; Table 4) | MDCK Permeability (MDR1-MDCK); Mean; Papp(A-B) (10^−6 cm/s) ([4]; Table 4) | MDCK Permeability (MDR1-MDCK); Mean; Papp(B-A) (10^−6 cm/s) ([4]; Table 4) | MDCK Permeability (MDR1-MDCK); Mean; P. Ratio(B-A/A-B) Efflux Ratio ([4]; Table 4) | IC50 [1, 7] | IC50 [2, 8] | MDCK Permeability (MDR1-MDCK); Mean; Papp(A-B) (10^−6 cm/s) ([4]; Table 3) | MDCK Permeability (MDR1-MDCK); Mean; Papp(B-A) (10^−6 cm/s) ([4]; Table 3) | MIDCK Permeability (MDR1-MDCK); Mean; P. Ratio(B-A/A-B) Efflux Ratio ([4]; Table 3) | Structure (SMILES) | also measured |
| --- | --- | --- | --- | --- | --- | --- | --- | --- | --- | --- | --- | --- |
| ≤ 100 nM | 100 to 1000 nM | 4.3 min | 2.8 10^−6 cm/s | 31 10^−6 cm/s | 11 | – | – | – | – | – | CCC1(c2cccc(-c3cc(C)nn3C)c2)C2=C(CC(C)(C)CC2=O)Nc2ncccc21 (single isomer, unassigned) [Compound 1024B] | – |
| 100 to 1000 nM | 1000 to 5000 nM | – | – | – | – | – | – | 12 10^−6 cm/s | 6.9 10^−6 cm/s | 0.59 | CCC1(c2cccc(-c3c(F)cncc3OC)c2)C2=C(CC(C)(C)CC2=O)Nc2ncc(F)cc21 (single isomer, unassigned) [Compound 161A] | Microsome Stability (Human) (DMPK_BIIB); Mean; in vitro t1/2 ([3]; Table 3): 10 min |
| > 5000 nM | > 5000 nM | – | – | – | – | – | – | 15 10^−6 cm/s | 9.5 10^−6 cm/s | 0.62 | CCC1(c2cccc(-c3c(F)cncc3OC)c2)C2=C(CC(C)(C)CC2=O)Nc2ncccc21 (single isomer, unassigned) [Compound 154A] | Microsome Stability (Human) (DMPK_BIIB); Mean; in vitro t1/2 ([3]; Table 3): 6.4 min |
| – | – | – | – | – | – | ≤ 100 nM | ≤ 100 nM | 0.52 10^−6 cm/s | 75 10^−6 cm/s | 144 | CC1(C)CC(=O)C2=C(C1)Nc1ncc(F)cc1C2(C)c1cccc(S(C)(=O)=O)c1 (single isomer, unassigned) [Compound 139A] | – |
| > 5000 nM | > 5000 nM | – | – | – | – | – | – | – | – | – | CC1(C)CC(=O)C2=C(C1)Nc1ncccc1C2c1ccccc1 (stereo not shown) [Compound C1, reference compound] | – |
| 1000 to 5000 nM | 1000 to 5000 nM | – | – | – | – | – | – | – | – | – | CCC1(c2ccccc2)C2=C(CC(C)(C)NC2=O)Nc2ncccc21 (single isomer, unassigned) [Compound 1002B] | – |
